{"source": "paper PMC2605960", "about": "(Biochemical Journal, 2008)", "key": {"[1]": {"target": "T1, FLAG-α1b-adrenoceptor-eYFP (Mesocricetus auratus, UniProt P18841)", "T1 sequence (P18841 1-515)": "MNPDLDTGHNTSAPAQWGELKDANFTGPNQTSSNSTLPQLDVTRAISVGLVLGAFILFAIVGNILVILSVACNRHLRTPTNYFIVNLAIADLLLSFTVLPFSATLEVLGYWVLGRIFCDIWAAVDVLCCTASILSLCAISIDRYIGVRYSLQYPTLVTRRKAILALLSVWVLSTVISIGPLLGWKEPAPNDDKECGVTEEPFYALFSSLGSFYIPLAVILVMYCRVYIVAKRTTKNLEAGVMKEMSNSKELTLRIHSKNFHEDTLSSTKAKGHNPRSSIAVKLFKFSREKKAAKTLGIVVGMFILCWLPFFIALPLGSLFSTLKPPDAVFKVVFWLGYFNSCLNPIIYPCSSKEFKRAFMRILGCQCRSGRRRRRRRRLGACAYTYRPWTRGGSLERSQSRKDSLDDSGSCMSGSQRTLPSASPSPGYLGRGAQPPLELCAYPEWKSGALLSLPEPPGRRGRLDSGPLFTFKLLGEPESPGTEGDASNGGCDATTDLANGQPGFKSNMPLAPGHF", "format": "binding"}, "[2]": {"target": "T2, FLAG-α1b-adrenoceptor TMI-TMIV-eYFP (Mesocricetus auratus, UniProt P18841, L166A/L167A/L65A/V66A)", "T2 sequence (P18841 1-515 L65A/V66A/L166A/L167A)": "T1 sequence (P18841 1-515) with L65A, V66A, L166A, L167A", "conditions": "pKi, [3H]prazosin competition binding"}, "[3]": {"target": "T2, FLAG-α1b-adrenoceptor TMI-TMIV-eYFP", "experiment": "Intact cell anti-FLAG ELISA of cell surface receptor", "format": "cell-based", "conditions": "for cell surface delivery of mutant receptor (anti-FLAG ELISA): 10^−5 M of each drug"}, "[4]": {"target": "T2, FLAG-α1b-adrenoceptor TMI-TMIV-eYFP", "format": "cell-based", "conditions": "pre-treated with 10^−7 M overnight, then extensively washed; 0.4 nM [3H]prazosin"}, "[5]": {"target": "T3, FLAG-α1b-adrenoceptor TMI-TMIV (Mesocricetus auratus, UniProt P18841, L166A/L167A/L65A/V66A)", "T3 sequence (P18841 1-515 L65A/V66A/L166A/L167A) 1": "T1 sequence (P18841 1-515) with L65A, V66A, L166A, L167A", "T3 sequence (P18841 1-515 L65A/V66A/L166A/L167A) 2": "T1 sequence (P18841 1-515) with L65A, V66A, L166A, L167A", "T3 sequence (P18841 1-515 L65A/V66A/L166A/L167A) 3": "T1 sequence (P18841 1-515) with L65A, V66A, L166A, L167A", "experiment": "Sequential 3-colour FRET imaging", "format": "cell-based", "conditions": "10^−7 M, 12 h; transiently transfected HEK-293 cells"}}, "note": "Residue numbers refer to the chain shown, from its start.", "data": [{"smiles": "CNC[C@H](O)c1ccc(O)c(O)c1", "note": "[adrenaline]", "values": [{"measurement": "Ki", "setting": "[1]", "result": 0.501, "unit": "µM"}, {"measurement": "Ki", "setting": "[2]", "result": 0.0631, "unit": "µM"}]}, {"smiles": "O=C(c1ccc(F)cc1)C1CCN(CCn2c(=O)[nH]c3ccccc3c2=O)CC1", "note": "[ketanserin]", "values": [{"measurement": "cell surface delivery of mutant receptor (anti-FLAG ELISA)", "setting": "[3]; overnight treatment", "result": "significant cell surface delivery"}]}, {"smiles": "COc1cc2nc(N3CCN(C(=O)c4ccco4)CC3)nc(N)c2cc1OC", "note": "[prazosin]", "values": [{"measurement": "cell surface delivery of mutant receptor (anti-FLAG ELISA)", "setting": "[3]; overnight treatment", "result": "most effective ligand tested"}, {"measurement": "concentration of maximum effect on cell surface mutant receptor", "setting": "[3]; overnight treatment", "result": "10^−7 M"}, {"measurement": "incubation time for maximum effect on cell surface mutant receptor", "setting": "[3]; results not shown", "result": "14 to 16", "unit": "h"}, {"measurement": "cell surface mutant receptor by intact cell [3H]prazosin binding", "setting": "[4]", "result": "marked increases of cell surface FLAG-α1b-adrenoceptor TMI-TMIV-eYFP"}, {"measurement": "sequential FRET signal (eCFP to dsRed2 FRET)", "setting": "[5]", "result": "increased"}]}, {"smiles": "Cc1nc2sccn2c(=O)c1CCN1CCC(=C(c2ccc(F)cc2)c2ccc(F)cc2)CC1", "note": "[ritanserin]", "values": [{"measurement": "cell surface delivery of mutant receptor (anti-FLAG ELISA)", "setting": "[3]; overnight treatment", "result": "only ketanserin caused significant cell surface delivery"}]}]}
